# Source: patent publication US9353089B2, “Compositions and methods for the treatment of malaria” (Saint Louis University, priority 2013, dated 2016)
# Where two headings read alike, the source gives them in different places.
# Columns and labels:
# [1] = system: Plasmodium falciparum 3D7 (CQ-sensitive); experiment: In vitro antimalarial assay (malaria SYBR Green I-based fluorescence, MSF), 3D7; assay type: cell-based
# Experimental: Stock solutions of each test drug were prepared in DMSO at a concentration of 20 mM. The drug solutions were serially diluted with culture medium and distributed to asynchronous parasite cultures on 96-well plates in quadruplicate in a total volume of 100 μL to achieve 0.5% parasitemia with a 2% hematocrit in a total volume of 100 pt. […] After incubation, 100 μL of lysis buffer with 0.2 μL/mL SYBR Green I was added to each well.
# Antimalarial potency of compounds was determined by this technique for both Plasmodium falciparum 3D7 (CQ-sensitive) and Dd2 (multi-drug resistant) strains.
# [2] = target: Plasmepsin-2 (PM-2; Plm II) (Plasmodium falciparum (isolate HB3), UniProt P46925); experiment: Plasmepsin-2 enzyme inhibition assay; assay type: biochemical; settings: read-out: PM-2 IC50
# Experimental: Plasmepsin-2 (PM-2; Plm II) and Plasmepsin (PM-4; Plm IV) expression and purification was performed following the published protocols (Istvan E S and Goldberg D E, 2005). The final purified protein was activated by diluting the protein to 0.3 mg/mL in activating buffer (0.1 M citrate pH 4.5, 0.1% Tween-20, 50 mM dithiothreitol) and incubated at room temperature for 40 min, then the activated enzyme was diluted in assay buffer (50 mM sodium acetate pH 4.7, 0.01% Tween-20). The enzymatic inhibition reaction was performed in 384 well plates with a total volume of 20 μl. 10 μl of diluted PM-2 or PM-4 enzyme was added to the 384-well plate except blank wells (blank wells add 10 μL of assay buffer) and 20 nL of serials of diluted 1000× compounds were added to the wells with 520 Echo® Liquid Handling System (Labcyte Inc.). 10 μL PM-2 peptide substrate (AnaSpec, Cat#, 62050) with assay buffer was then added to final concentration of 20 μM to start the reaction. After incubation the reaction at room temperature for 60 min, the fluorescence intensity at Ex/Em=360 nm/535 nm was measured using EnVision multilabel plate reader (Perkin-Elmer). The IC50 values were obtained using Graph Pad Prism 4 and are reported in Tables 8 and 9 below as PM-2 IC50 values.
# [3] = 3D7, Table 11, read-out: Pf 3D7 IC50
# [4] = 3D7, Table 13, read-out: 3D7 IC50
# [5] = 3D7, Table 10, read-out: Pf3D7 IC50
# [6] = 3D7, Table 12, read-out: 3D7 IC50
# Sequence of Plasmepsin-2 (PM-2; Plm II) (P46925 125-453 limits assumed): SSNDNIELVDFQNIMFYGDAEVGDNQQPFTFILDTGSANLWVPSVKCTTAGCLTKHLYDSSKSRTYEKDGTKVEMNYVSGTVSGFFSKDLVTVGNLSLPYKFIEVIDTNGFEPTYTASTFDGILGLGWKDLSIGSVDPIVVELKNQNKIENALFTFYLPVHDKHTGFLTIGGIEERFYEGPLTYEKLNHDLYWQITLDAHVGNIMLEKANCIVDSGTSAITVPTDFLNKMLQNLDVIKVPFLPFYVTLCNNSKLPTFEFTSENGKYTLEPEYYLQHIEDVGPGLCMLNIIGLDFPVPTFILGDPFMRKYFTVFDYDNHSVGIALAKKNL
Structure (SMILES),"IC50 [1, 3] [nM]","IC50 [1, 4] [nM]",IC50 ([2]; Table 13) [nM],"IC50 [1, 5] [nM]","IC50 [1, 6] [nM]",IC50 ([2]; Table 12) [nM]
"N=C1NC(c2ccccc2)(c2cccc(OCc3ccccc3)c2)C(=O)N1C1CCCCC1 (stereo not shown) [Example 228, 5-[3-(benzyloxy)-phenyl]-3-cyclohexyl-2-imino-5-phenylimidazolidin-4-one]",641,641,2.89,,,
"COc1cccc(C2(c3cccc(OC)c3)NC(=N)N(C3CC3)C2=O)c1 [Example 167, 3-cyclopropyl-2-imino-5,5-bis(3-methoxyphenyl)-imidazolidin-4-one]",,9320,2830,,,
"COc1ccc(C2(c3ccc(OC)cc3)NC(=N)N(C3CCCC3)C2=O)cc1 [Example 159, 3-cyclopentyl-2-imino-5,5-bis(4-methoxyphenyl)-imidazolidin-4-one]",,611,25.1,611,,
"COc1ccc(C2(c3cccc(-c4ccccn4)c3)NC(=N)N(C3CCCCC3)C2=O)cc1 (stereo not shown) [Example 210, 3-cyclohexyl-2-imino-5-(4-methoxyphenyl)-5-[3-(pyridin-2-yl)-phenyl]imidazolidin-4-one]",1810,1810,5.47,,,
"COc1ccc(C2(c3ccc(OC)cc3)NC(=N)N(Cc3c(C)cccc3C)C2=O)cc1 [Example 278, 3-[(2,6-dimethyl-phenyl)methyl]-2-imino-5,5-bis(4-methoxyphenyl)-imidazolidin-4-one]",,1040,2.76,,,
"COc1ccc(C2(c3ccc(OC)cc3)NC(=N)N(Cc3cccc(C)c3C)C2=O)cc1 [Example 277, 3-[(2,3-dimethyl-phenyl)methyl]-2-imino-5,5-bis(4-methoxyphenyl)-imidazolidin-4-one]",,1570,4.39,,,
"COc1ccc(C2(c3ccc(OC)cc3)NC(=N)N(CC3CCCO3)C2=O)cc1 (stereo not shown) [Example 274, 2-imino-5,5-bis(4-methoxyphenyl)-3-(oxolan-2-ylmethyl)-imidazolidin-4-one]",,633,11.4,,,
"N=C1NC(c2ccccc2)(c2ccccc2)C(=O)N1C1CCOCC1 [Example 198, 2-imino-3-(oxan-4-yl)-5,5-diphenyl-imidazolidin-4-one]",,> 2500,118,,,
"N=C1NC(c2ccccc2)(c2ccccc2)C(=O)N1Cc1ccccc1 [Example 102, 3-benzyl-2-imino-5,5-diphenyl-imidazolidin-4-one]",,8290,33.1,8290,,
"N=C1NC(c2ccc(OC(F)(F)F)cc2)(c2ccc(OC(F)(F)F)cc2)C(=O)N1C1CCCCC1 [Example 201, 3-cyclohexyl-2-imino-5,5-bis[4-(trifluoromethoxy)-phenyl]imidazolidin-4-one]",2200,2200,55.1,,,
"COc1ccc(C2(c3cccc(-c4ccncc4)c3)NC(=N)N(C3CCCCC3)C2=O)cc1 (stereo not shown) [Example 172, 3-cyclohexyl-2-imino-5-(4-methoxyphenyl)-5-[3-(pyridin-4-yl)phenyl]-imidazolidin-4-one]",,533,9.64,,,
"COc1cccc(-c2cccc(C3(C4CC4)NC(=N)N(C)C3=O)c2)c1 (stereo not shown) [Example 330, 5-cyclopropyl-2-imino-5-[3-(3-methoxyphenyl)-phenyl]-3-methyl-imidazolidin-4-one]",,,,,~2400,751
"COc1ccc(C2(c3ccc(OC)cc3)NC(=N)N(C3CCCCCC3)C2=O)cc1 [Example 220, 3-cycloheptyl-2-imino-5,5-bis(4-methoxyphenyl)-imidazolidin-4-one]",,427,2.37,427,,
"COc1cccc(C2(c3cccc(OC)c3)NC(=N)N(Cc3ccccc3)C2=O)c1 [Example 105, 3-benzyl-2-imino-5,5-bis(3-methoxy-phenyl)imidazolidin-4-one]",,6310,57.4,,,
"N=C1NC(c2ccccc2)(c2ccccc2)C(=O)N1C1CC1 [Example 142, 3-cyclopropyl-2-imino-5,5-diphenylimidazolidin-4-one]",,10800,1790,,,
"COc1ccc(C2(c3ccc(OC)cc3)NC(=N)N(Cc3ccccc3C)C2=O)cc1 [Example 303, 2-imino-5,5-bis(4-methoxyphenyl)-3-[(2-methylphenyl)-methyl]imidazolidin-4-one]",,1010,3.1,,,
"N=C1NC(c2ccc(Cl)cc2)(c2ccc(Cl)cc2)C(=O)N1C1CCCCC1 [Example 155, 5,5-bis(4-chlorophenyl)-3-cyclohexyl-2-iminoimidazolidin-4-one]",1070,1070,6,,,
"COc1ccc(C2(c3ccc(OC)cc3)NC(=N)N(Cc3ccncc3)C2=O)cc1 [Example 203, 2-imino-5,5-bis(4-methoxyphenyl)-3-(pyridin-4-ylmethyl)-imidazolidin-4-one]",,1130,14.9,,,
"CCOc1ccc(C2(c3ccc(OCC)cc3)NC(=N)N(C3CCCCC3)C2=O)cc1 [Example 157, 3-cyclohexyl-5,5-bis(4-ethoxyphenyl)-2-iminoimidazolidin-4-one]",466,466,6.87,,,
"COc1cccc(C2(c3cccc(OC)c3)NC(=N)N(C3CCCC3)C2=O)c1 [Example 168, 3-cyclopentyl-2-imino-5,5-bis(3-methoxyphenyl)-imidazolidin-4-one]",,1090,110,,,
"COc1ccc(C2(c3ccc(OC)cc3)NC(=N)N(Cc3ccccc3C(F)(F)F)C2=O)cc1 [Example 304, 2-imino-5,5-bis(4-methoxyphenyl)-3-{[2-(trifluoromethyl)-phenyl]methyl}-imidazolidin-4-one]",,1340,1.88,,,
"N=C1NC(c2ccc(Br)cc2)(c2ccc(Br)cc2)C(=O)N1C1CCCCC1 [Example 154, 5,5-bis(4-bromophenyl)-3-cyclohexyl-2-iminoimidazolidin-4-one]",,1480,9.9,,,
"N=C1NC(c2ccccc2)(c2cccc(-c3ccccc3)c2)C(=O)N1C1CCCCC1 (stereo not shown) [Example 212, 3-cyclohexyl-2-imino-5-phenyl-5-(3-phenylphenyl)-imidazolidin-4-one]",,1710,12.3,,,
"COc1ccc(C2(c3ccc(OC)cc3)NC(=N)N(Cc3cccnc3)C2=O)cc1 [Example 219, 2-imino-5,5-bis(4-methoxyphenyl)-3-(pyridin-3-ylmethyl)-imidazolidin-4-one]",,582,9.62,,,
"COc1cccc(-c2cccc(C3(c4ccccc4)NC(=N)N(C)C3=O)c2)c1 (stereo not shown) [Example 327, 2-imino-5-[3-(3-methoxyphenyl)phenyl]-3-methyl-5-phenyl-imidazolidin-4-one]",,,,,4970,240
